ChEMBL document CHEMBL4229455, “Synthesis and anticancer activity of novel bisindolylhydroxymaleimide derivatives with potent GSK-3 kinase inhibition” (Bioorg Med Chem, 2018)

Assays:
Hs-578T = test: Cytotoxicity against human Hs 578T cells assessed as cell growth at 10 uM after 48 hrs by SRB assay relative to control; format: functional; settings: read-out: Activity
OVCAR-8 = test: Cytotoxicity against human OVCAR8 cells assessed as cell growth at 10 uM after 48 hrs by SRB assay relative to control; format: functional; settings: OVCAR-8, 48 h, read-out: Activity
HT-29 = test: Cytotoxicity against human HT-29 cells assessed as cell growth at 10 uM after 48 hrs by SRB assay relative to control; format: functional; settings: HT-29, 48 h, read-out: Activity
T47D = test: Cytotoxicity against human T47D cells assessed as cell growth at 10 uM after 48 hrs by SRB assay relative to control; format: functional; settings: read-out: Activity
[1] = Inhibition of domestic porcine brain full length […] using RRKHAAIGSpAYSITA as substrate in presence of [gamma-33P]ATP; design: species or system Sus scrofa domesticus
786-0 = test: Cytotoxicity against human 786-O cells assessed as cell growth at 10 uM after 48 hrs by SRB assay relative to control; format: functional; settings: 786-0, 48 h, read-out: Activity
HOP-62 = test: Cytotoxicity against human HOP62 cells assessed as cell growth at 10 uM after 48 hrs by SRB assay relative to control; format: functional; settings: HOP-62, 48 h, read-out: Activity
[2] = molecular target: Cyclin-dependent kinase 5/CDK5 activator 1 (Homo sapiens, UniProt Q00535); test: Inhibition of recombinant full length human CDK5/p25 expressed in bacteria using histone H1 as substrate in presence of [gamma-33P]ATP
Cyclin-dependent kinase 5/CDK5 activator 1, sequence (Q00535 whole entry): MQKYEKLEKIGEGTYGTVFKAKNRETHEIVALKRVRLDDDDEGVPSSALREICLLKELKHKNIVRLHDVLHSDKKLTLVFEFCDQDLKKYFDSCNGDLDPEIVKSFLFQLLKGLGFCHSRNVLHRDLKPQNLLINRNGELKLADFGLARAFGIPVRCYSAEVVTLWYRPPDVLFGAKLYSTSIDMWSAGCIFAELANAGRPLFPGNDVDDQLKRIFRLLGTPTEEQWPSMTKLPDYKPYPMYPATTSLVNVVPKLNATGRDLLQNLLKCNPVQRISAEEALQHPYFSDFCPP
Cyclin-dependent kinase 5/CDK5 activator 1, sequence (Q15078 whole entry, further chain): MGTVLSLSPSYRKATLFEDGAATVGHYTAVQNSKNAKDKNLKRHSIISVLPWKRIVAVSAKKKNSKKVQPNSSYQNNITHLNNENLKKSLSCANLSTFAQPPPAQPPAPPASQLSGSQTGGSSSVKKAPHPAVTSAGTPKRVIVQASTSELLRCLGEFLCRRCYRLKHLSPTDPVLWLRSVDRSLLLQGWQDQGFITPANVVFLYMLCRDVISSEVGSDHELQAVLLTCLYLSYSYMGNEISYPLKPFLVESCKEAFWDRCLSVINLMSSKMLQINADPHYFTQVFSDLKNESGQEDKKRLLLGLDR

MOLT-4 = test: Cytotoxicity against human MOLT4 cells assessed as cell growth at 10 uM after 48 hrs by SRB assay relative to control; format: functional; settings: MOLT-4, 48 h, read-out: Activity
K562 = test: Cytotoxicity against human K562 cells assessed as cell growth at 10 uM after 48 hrs by SRB assay relative to control; format: functional; settings: K562, 48 h, read-out: Activity
HCT-116 = test: Cytotoxicity against human HCT116 cells assessed as cell growth at 10 uM after 48 hrs by SRB assay relative to control; format: functional; settings: HCT-116, 48 h, read-out: Activity
SK-OV-3 = test: Cytotoxicity against human SKOV3 cells assessed as cell growth at 10 uM after 48 hrs by SRB assay relative to control; format: functional; settings: SK-OV-3, 48 h, read-out: Activity
[3] = molecular target: Receptor-interacting serine/threonine-protein kinase 3 (Homo sapiens, UniProt Q9Y572); test: Inhibition of recombinant full length human RIPK3 expressed in baculovirus infected Sf9 insect cells using MBP as substrate in presence of [gamma-33P]ATP
Receptor-interacting serine/threonine-protein kinase 3, sequence (Q9Y572 whole entry): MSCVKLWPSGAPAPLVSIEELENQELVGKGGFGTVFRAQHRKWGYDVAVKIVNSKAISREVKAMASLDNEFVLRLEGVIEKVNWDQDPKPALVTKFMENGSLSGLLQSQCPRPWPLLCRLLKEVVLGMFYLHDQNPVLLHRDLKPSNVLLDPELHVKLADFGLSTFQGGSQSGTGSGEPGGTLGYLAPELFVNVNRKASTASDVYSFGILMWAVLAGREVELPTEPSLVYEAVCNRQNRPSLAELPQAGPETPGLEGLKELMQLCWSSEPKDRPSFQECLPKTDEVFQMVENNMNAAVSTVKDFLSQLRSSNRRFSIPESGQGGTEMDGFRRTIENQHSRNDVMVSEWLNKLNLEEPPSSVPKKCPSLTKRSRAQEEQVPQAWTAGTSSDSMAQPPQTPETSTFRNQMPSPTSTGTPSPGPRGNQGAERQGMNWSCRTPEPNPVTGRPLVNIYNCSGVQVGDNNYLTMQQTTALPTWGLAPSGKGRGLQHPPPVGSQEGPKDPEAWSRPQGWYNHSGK

OVCAR-3 = test: Cytotoxicity against human OVCAR3 cells assessed as cell growth at 10 uM after 48 hrs by SRB assay relative to control; format: functional; settings: OVCAR-3, 48 h, read-out: Activity
[4] = molecular target: Dual specificity tyrosine-phosphorylation-regulated kinase 1A (Rattus norvegicus) (UniProt Q63470); test: Inhibition of recombinant rat DYRK1A kinase domain expressed in bacteria assessed as residual activity at 10 uM using KKISGRLSPIMTEQ as substrate in presence of [gamma-33P]ATP
SF-295 = test: Cytotoxicity against human SF295 cells assessed as cell growth at 10 uM after 48 hrs by SRB assay relative to control; format: functional; settings: SF-295, 48 h, read-out: Activity
HL-60(TB) = test: Cytotoxicity against human HL-60(TB) cells assessed as cell growth at 10 uM after 48 hrs by SRB assay relative to control; format: functional; settings: HL-60, 48 h, read-out: Activity
M14 = test: Cytotoxicity against human M14 cells assessed as cell growth at 10 uM after 48 hrs by SRB assay relative to control; format: functional; settings: M14, 48 h, read-out: Activity
ACHN = test: Cytotoxicity against human ACHN cells assessed as cell growth at 10 uM after 48 hrs by SRB assay relative to control; format: functional; settings: read-out: Activity
RXF 393 = test: Cytotoxicity against human RXF393 cells assessed as cell growth at 10 uM after 48 hrs by SRB assay relative to control; format: functional; settings: RXF 393, 48 h, read-out: Activity
RPMI-8226 = test: Cytotoxicity against human RPMI8226 cells assessed as cell growth at 10 uM after 48 hrs by SRB assay relative to control; format: functional; settings: RPMI-8226, 48 h, read-out: Activity
UO-31 = test: Cytotoxicity against human UO31 cells assessed as cell growth at 10 uM after 48 hrs by SRB assay relative to control; format: functional; settings: UO-31, 48 h, read-out: Activity
NCI-H322M = test: Cytotoxicity against human NCI-H322M cells assessed as cell growth at 10 uM after 48 hrs by SRB assay relative to control; format: functional; settings: read-out: Activity
EKVX = test: Cytotoxicity against human EKVX cells assessed as cell growth at 10 uM after 48 hrs by SRB assay relative to control; format: functional; settings: read-out: Activity

SMILES	growth at 10 µM (Hs-578T) [%]	growth at 10 µM (OVCAR-8) [%]	growth at 10 µM (HT-29) [%]	growth at 10 µM (T47D) [%]	IC50 [1] [µM]	growth at 10 µM (HOP-62) [%]	IC50 [2] [µM]	growth at 10 µM (MOLT-4) [%]	growth at 10 µM (K562) [%]	growth at 10 µM (HCT-116) [%]	growth at 10 µM (SK-OV-3) [%]	IC50 [3] [µM]	growth at 10 µM (OVCAR-3) [%]	Activity [4] [%]	growth at 10 µM (SF-295) [%]	growth at 10 µM (HL-60(TB)) [%]	growth at 10 µM (M14) [%]	growth at 10 µM (ACHN) [%]	growth at 10 µM (RXF 393) [%]	growth at 10 µM (RPMI-8226) [%]	also measured
CC(C)n1cc(C2=C(c3c[nH]c4ccccc34)C(=O)N(O)C2=O)c2ccccc21	111	107	99.2	86.7	> 10	98.6	> 10	77	86.3	85.4	102	> 10	92.7	73	99.7	82.6	98.9	99.6	100	56.9	growth at 10 µM (786-0): 77.9%; growth at 10 µM (UO-31): 67.9%; growth at 10 µM (NCI-H322M): 103%
O=C(O)CCCCCn1cc(C2=C(c3c[nH]c4ccccc34)C(=O)N(O)C2=O)c2ccccc21	103	99.4	101	96.2	> 10	86.8	> 10	99.7	94.8	98.9	81	> 10	99.3	24	105	108	92.9	97.5	101	101	growth at 10 µM (786-0): 93%; growth at 10 µM (UO-31): 61%; growth at 10 µM (NCI-H322M): 101%
Cn1cc(C2=C(c3cn(C)c4ccccc34)C(=O)N(O)C2=O)c2ccccc21	95.8	96.5	102	96.4	> 10	97	> 10	101	100	99.9	101	> 10	111	81	104	87.1	105	101	82.8	79.3	growth at 10 µM (786-0): 103%; growth at 10 µM (UO-31): 74.2%; growth at 10 µM (NCI-H322M): 103%
O=C1C2=C(C(=O)N1O)c1cn(c3ccccc13)CCCCCCn1cc2c2ccccc21	97.2	110	121	104	> 10	107	> 10	110	109	115	106	> 10	106	107	107	105	102	109	119	92.9	growth at 10 µM (EKVX): 103%; growth at 10 µM (UO-31): 80.3%; growth at 10 µM (NCI-H322M): 108%
Cn1cc(C2=C(c3cn(CCCCCC#N)c4ccccc34)C(=O)N(O)C2=O)c2ccccc21	93.5	100	90.1	78.5	> 10	89.6	> 10	95.7	78.8	85.1	86.5	> 10	93.6	24	107	124	100	97.4	90	71.2	growth at 10 µM (786-0): 83.7%; growth at 10 µM (UO-31): 50.8%; growth at 10 µM (NCI-H322M): 98%
